Assay results reported in PubChem BioAssay AID330 (DTP/NCI, 2004).
“And” between values parts separate entries of the source, which are not always exact repeats. Identical values can stand only once. Inconclusive results and toxic doses are left out. How the source made its calls: active means survival T/C of 150% or more; inactive means T/C below 125% in these data.

Tested on: P388 leukemia ip, CD2F1 mice, survival T/C
Assay: NCI In Vivo Anticancer Drug Screen. Data for tumor model P388 Leukemia (intraperitoneal) in CD2F1 (CDF1) mice
Settings: endpoint: median survival time, higher = longer survival
Procedure, shortened: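 Mice carrying the transplanted tumor received test compound or vehicle. Survival was recorded in each group, and the value is the treated-group measurement divided by that of the vehicle-treated control group.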

[1] = dose: 50.0 mg/kg/injection, schedule: Q01DX009 (ip), vehicle: saline with Tween-80
[2] = dose: 100.0 mg/kg/injection, schedule: Q01DX009 (ip), vehicle: saline with Tween-80
[3] = dose: 50.0 mg/kg/injection, schedule: Q01DX005 (ip), vehicle: saline with Tween-80
[4] = dose: 100.0 mg/kg/injection, schedule: Q01DX005 (ip), vehicle: saline with Tween-80
[5] = dose: 50.0 mg/kg/injection, schedule: Q01DX009 (ip), vehicle: Klucel (hydroxypropylcellulose) (HPC)
[6] = dose: 100.0 mg/kg/injection, schedule: Q01DX009 (ip), vehicle: Klucel (hydroxypropylcellulose) (HPC)
[7] = dose: 200.0 mg/kg/injection, schedule: Q01DX005 (ip), vehicle: saline with Tween-80
[8] = dose: 60.0 mg/kg/injection, schedule: Q01DX005 (ip), vehicle: saline with Tween-80
[9] = dose: 120.0 mg/kg/injection, schedule: Q01DX005 (ip), vehicle: saline with Tween-80
[10] = dose: 240.0 mg/kg/injection, schedule: Q01DX005 (ip), vehicle: saline with Tween-80
[11] = dose: 50.0 mg/kg/injection, schedule: Q01DX005 (ip), vehicle: Klucel (hydroxypropylcellulose) (HPC)
[12] = dose: 100.0 mg/kg/injection, schedule: Q01DX005 (ip), vehicle: Klucel (hydroxypropylcellulose) (HPC)

Measured: T/C

Oc1ccc2ccccc2c1/C=N\Sc1ccc(Cl)cc1
inactive: [1] 90 % of control | [2] 91 % of control | dose: 200.0 mg/kg/injection, schedule: Q01DX009 (ip), vehicle: saline with Tween-80 96 % of control

CCCC(N(C)C)P(=O)(O)O (configuration not stated)
inactive: dose: 100.0 mg/kg/injection, schedule: Q04DX003 (ip), vehicle: saline 105 % of control | dose: 200.0 mg/kg/injection, schedule: Q04DX003 (ip), vehicle: saline 105 % of control | dose: 400.0 mg/kg/injection, schedule: Q04DX003 (ip), vehicle: saline 100 % of control

O=C1NC(O)c2cccc(F)c2O1 (configuration not stated)
inactive: [3] 100 % of control | [4] 102 % of control

CN(C)CCCN1C=CC(=C2C(=O)c3ccccc3C2=O)C=C1
inactive: [5] 88 % of control | [6] 86 % of control | dose: 200.0 mg/kg/injection, schedule: Q01DX009 (ip), vehicle: Klucel (hydroxypropylcellulose) (HPC) 97 % of control

[O-][n+]1ccc(C2CO2)cc1 (configuration not stated)
inactive: dose: 50.0 mg/kg/injection, schedule: Q01DX009 (ip), vehicle: saline 93 % of control | dose: 100.0 mg/kg/injection, schedule: Q01DX009 (ip), vehicle: saline 101 % of control | dose: 200.0 mg/kg/injection, schedule: Q01DX009 (ip), vehicle: saline 98 % of control

O=C(O)CNC(=O)C(Cl)Cl
inactive: dose: 50.0 mg/kg/injection, schedule: Q01DX005 (ip), vehicle: saline 100 % of control | dose: 100.0 mg/kg/injection, schedule: Q01DX005 (ip), vehicle: saline 100 % of control | dose: 200.0 mg/kg/injection, schedule: Q01DX005 (ip), vehicle: saline 90 % of control

COC(=O)COc1cc2c(cc1C(C)c1ccc(O)cc1)OCO2 (configuration not stated)
inactive: [3] 100 % of control | [4] 102 % of control | [7] 90 % of control

CC[Si](C#CCOc1ccccc1C1OCCO1)(CC)CC
inactive: [8] 105 % of control | [9] 101 % of control | [10] 99 % of control

Cc1cc2c(cc1C)C(=O)C(CN1CCCCC1)CO2 (configuration not stated)
inactive: dose: 100.0 mg/kg/injection, schedule: Q01DX001 (ip), vehicle: saline 107 % of control | dose: 200.0 mg/kg/injection, schedule: Q01DX001 (ip), vehicle: saline 104 % of control

COc1cc(C(CC(C)=O)c2cc3c(cc2OC(C)=O)OCO3)cc(OC)c1OC (configuration not stated)
inactive: dose: 30.0 mg/kg/injection, schedule: Q01DX005 (ip), vehicle: saline with Tween-80 95 % of control | [8] 100 % of control and 93 % of control | [9] 120 % of control

O=C(O)Cc1c(-c2ccccc2)nc(=S)[nH]c1-c1[nH]c(=S)nc(-c2ccccc2)c1CC(=O)O
inactive: dose: 60.0 mg/kg/injection, schedule: Q01DX005 (ip), vehicle: saline 111 % of control | dose: 120.0 mg/kg/injection, schedule: Q01DX005 (ip), vehicle: saline 106 % of control | dose: 240.0 mg/kg/injection, schedule: Q01DX005 (ip), vehicle: saline 96 % of control

CCc1ccc2c(c1OCOC)CCC2
inactive: dose: 100.0 mg/kg/injection, schedule: Q04DX002 (ip), vehicle: saline with Tween-80 100 % of control | dose: 200.0 mg/kg/injection, schedule: Q04DX002 (ip), vehicle: saline with Tween-80 100 % of control | dose: 400.0 mg/kg/injection, schedule: Q04DX002 (ip), vehicle: saline with Tween-80 95 % of control

CNC(=O)OCc1c(COC(=O)NC)c(-c2ccc(Cl)cc2)n(C)c1C
active: dose: 6.25 mg/kg/injection, schedule: Q01DX009 (ip), vehicle: distilled water + Tween-80 155 % of control | dose: 12.5 mg/kg/injection, schedule: Q01DX009 (ip), vehicle: distilled water + Tween-80 150 % of control and 153 % of control

Brc1cccc2c(SCCCCCCSc3c4ccccc4nc4c(Br)cccc34)c3ccccc3nc12
inactive: dose: 60.0 mg/kg/injection, schedule: Q01DX005 (ip), vehicle: Klucel (hydroxypropylcellulose) (HPC) 93 % of control | dose: 120.0 mg/kg/injection, schedule: Q01DX005 (ip), vehicle: Klucel (hydroxypropylcellulose) (HPC) 92 % of control | dose: 240.0 mg/kg/injection, schedule: Q01DX005 (ip), vehicle: Klucel (hydroxypropylcellulose) (HPC) 93 % of control

C=C(Br)CC(N)C(=O)O (configuration not stated)
inactive: [11] 116 % of control | [12] 106 % of control

COc1cccc2c1OC(=O)NC2O (configuration not stated)
inactive: dose: 25.0 mg/kg/injection, schedule: Q01DX005 (ip), vehicle: distilled water + Tween-80 103 % of control | dose: 50.0 mg/kg/injection, schedule: Q01DX005 (ip), vehicle: distilled water + Tween-80 107 % of control | [3] 102 % of control | dose: 100.0 mg/kg/injection, schedule: Q01DX005 (ip), vehicle: distilled water + Tween-80 121 % of control | [4] 122 % of control | dose: 200.0 mg/kg/injection, schedule: Q01DX005 (ip), vehicle: distilled water + Tween-80 110 % of control | [7] 112 % of control

O=C(O)c1cccc2c1SC(c1ccccc1)OC2=O (configuration not stated)
inactive: dose: 50.0 mg/kg/injection, schedule: Q01DX005 (ip), vehicle: distilled water + alcohol 103 % of control | dose: 100.0 mg/kg/injection, schedule: Q01DX005 (ip), vehicle: distilled water + alcohol 99 % of control | dose: 200.0 mg/kg/injection, schedule: Q01DX005 (ip), vehicle: distilled water + alcohol 109 % of control

CN(C)C1=C(Cl)C(=O)c2ccccc2C1=O
inactive: dose: 25.0 mg/kg/injection, schedule: Q01DX009 (ip), vehicle: Klucel (hydroxypropylcellulose) (HPC) 100 % of control | [5] 100 % of control | [6] 97 % of control

COC(CCl)(CBr)OC
inactive: dose: 25.0 mg/kg/injection, schedule: Q01DX009 (ip), vehicle: saline with Tween-80 95 % of control | [1] 97 % of control | [2] 105 % of control

Clc1ccc2ccc3ccc(Cl)nc3c2n1
inactive: [8] 92 % of control | [9] 89 % of control | [10] 92 % of control

COCCCn1cnn2c(=O)c3ccccc3nc2c1=O
inactive: [8] 103 % of control | [9] 99 % of control | [10] 100 % of control

CC(C)CC(N)C(=O)NC(CC(C)C)P(=O)(O)O (configuration not stated)
inactive: [8] 106 % of control | [9] 101 % of control | [10] 104 % of control

COc1cc2oc3cc(OC)c(OC)c(CC=C(C)C)c3c(=O)c2c(O)c1CC=C(C)C
inactive: dose: 25.0 mg/kg/injection, schedule: Q01DX005 (ip), vehicle: Klucel (hydroxypropylcellulose) (HPC) 87 % of control | [11] 100 % of control | [12] 86 % of control and 97 % of control | dose: 200.0 mg/kg/injection, schedule: Q01DX005 (ip), vehicle: Klucel (hydroxypropylcellulose) (HPC) 105 % of control

CCOC(=N)c1cn(C2OC(CO)C(O)C2O)c2ncnc(N)c12 (configuration not stated)
inactive: dose: 1.0 mg/kg/injection, schedule: Q01DX009 (ip), vehicle: saline 118 % of control | dose: 2.0 mg/kg/injection, schedule: Q01DX009 (ip), vehicle: saline 90 % of control
active: dose: 0.2 mg/kg/injection, schedule: Q01DX009 (ip), vehicle: saline 161 % of control | dose: 0.25 mg/kg/injection, schedule: Q01DX009 (ip), vehicle: saline 150 % of control | dose: 0.3 mg/kg/injection, schedule: Q01DX009 (ip), vehicle: saline 157 % of control | dose: 0.5 mg/kg/injection, schedule: Q01DX009 (ip), vehicle: saline 159 % of control

CSc1nc(SC)c2nc(SC)sc2n1
inactive: dose: 50.0 mg/kg/injection, schedule: Q01DX001 (ip), vehicle: saline with Tween-80 90 % of control | dose: 100.0 mg/kg/injection, schedule: Q01DX001 (ip), vehicle: saline with Tween-80 88 % of control and 90 % of control | dose: 200.0 mg/kg/injection, schedule: Q01DX001 (ip), vehicle: saline with Tween-80 90 % of control | dose: 400.0 mg/kg/injection, schedule: Q01DX001 (ip), vehicle: saline with Tween-80 87 % of control

CNCCN=c1ccc2c3c1c(O)c1c(O)ccc(=O)c1c3[nH]n2CCNCCO
active: dose: 1.56 mg/kg/injection, schedule: Q04DX002 (ip), vehicle: water 167 % of control and 186 % of control | dose: 3.12 mg/kg/injection, schedule: Q04DX002 (ip), vehicle: water 177 % of control and 268 % of control | dose: 6.25 mg/kg/injection, schedule: Q04DX002 (ip), vehicle: water 275 % of control and 277 % of control | dose: 12.5 mg/kg/injection, schedule: Q04DX002 (ip), vehicle: water 275 % of control and 277 % of control
inactive: dose: 25.0 mg/kg/injection, schedule: Q04DX002 (ip), vehicle: water 90 % of control

CN(C)c1ccc(N=Nc2ccc([As](=O)(O)O)cc2)cc1
inactive: dose: 0.5 mg/kg/injection, schedule: Q01DX009 (ip), vehicle: saline with Tween-80 100 % of control | dose: 1.0 mg/kg/injection, schedule: Q01DX009 (ip), vehicle: saline with Tween-80 95 % of control
